From ChEMBL document CHEMBL1150570, “Five novel neuroprotective triterpene esters of Ulmus davidiana var. japonica” (2001)

Experiment: Neuroprotective activity against glutamate-induced toxicity in Sprague-Dawley rat cortical cells assessed as cell viability at 5 uM pretreated 1 hr before glutamate challenge by LDH release assay
Type: functional
Settings: read-out: Activity

SMILES | viability at 5 µM
C=C(C)[C@@H]1CC[C@]2(C)C[C@H](O)[C@]3(C)[C@H](C[C@@H](OC(=O)c4ccc(O)c(OC)c4)[C@@H]4[C@@]5(C)CC[C@H](O)C(C)(C)[C@@H]5CC[C@]43C)[C@@H]12 [ULMICIN A] | 48%
C=C(C)[C@@H]1CC[C@]2(C)C[C@H](O)[C@]3(C)[C@H](C[C@@H](OC(=O)c4ccc(O)cc4)[C@@H]4[C@@]5(C)CC[C@H](O)C(C)(C)[C@@H]5CC[C@]43C)[C@@H]12 [ULMICIN B] | 51.2%
C=C(C)[C@@H]1CC[C@]2(C)C[C@H](OC(=O)c3ccc(O)cc3)[C@]3(C)[C@H](C[C@@H](OC(=O)c4ccc(O)c(OC)c4)[C@@H]4[C@@]5(C)CC[C@H](O)C(C)(C)[C@@H]5CC[C@]43C)[C@@H]12 [ULMICIN C] | 49.2%
C=C(C)[C@@H]1CC[C@]2(C)C[C@H](OC(=O)c3ccc(O)c(OC)c3)[C@]3(C)[C@H](C[C@@H](OC(=O)c4ccc(O)c(OC)c4)[C@@H]4[C@@]5(C)CC[C@H](O)C(C)(C)[C@@H]5CC[C@]43C)[C@@H]12 [ULMICIN D] | 44.2%
C=C(C)[C@@H]1CC[C@]2(C)C[C@H](OC(=O)c3ccccc3)[C@]3(C)[C@H](C[C@@H](OC(=O)c4ccc(O)c(OC)c4)[C@@H]4[C@@]5(C)CC[C@H](O)C(C)(C)[C@@H]5CC[C@]43C)[C@@H]12 [ULMICIN E] | 41%
